This note sets out measurements from patent US11299485B2, “Thiophene derivative and use thereof” (FUJIMOTO CO., LTD., priority 2018, dated 2022).

Holding throughout (format): cell-based
One data set concerns Kasumi-7 cells. The data set is described as follows: Human acute lymphoblastic leukemia cell line Kasumi-7 proliferation suppression test. Conditions: 72 h, compound 10 μM, 3 days, WST-8, read-out: cell survival rate (% of control) Kasumi-7. An excerpt: Example 55: Human Acute Lymphoblastic Leukemia Cell Line Kasumi-7 Proliferation Suppression Test
Kasumi-7 cells (NIBIOHN, JCRB1401) were suspended in 20% fetal calf serum (Thermo Fisher Scientific, Inc.)-containing RPMI1640 medium (ATCC, hereinafter abbreviated as medium C), and diluted as appropriate with 0.4% trypan blue solution (Sigma-Aldrich Co. LLC.). The number of viable cells was counted with a hemocytometer (Funakoshi Co., Ltd.). A cell suspension obtained by diluting with medium C such that the value obtained was 1.3×10^5 cells/mL was dispensed into a Falcon 96 well flat bottom plate (Corning Incorporated) at 75 μL/well, and culture was started at 37° C. under 5% CO2 stream. The next day, a solution obtained by diluting 4 mM DMSO solution of the test compound 100-fold with medium C was added by 25 μL to each well (final concentration of test compound 10 μM). 25 μL of a solution obtained by diluting DMSO 100-fold with medium C was added to the control well. After culturing at 37° C. in a 5% CO2 stream for 3 days, the cell proliferation activity was measured according to the instruction manual attached to WST-8 Kit (KISHIDA CHEMICAL Co., Ltd.).

Data set [1] has as its system human peripheral blood mononuclear cells (PBMC). The data set is described as follows: Cytotoxicity test using human peripheral blood mononuclear cells (PBMC). Conditions: LPS, 24 hr. The protocol:
Example 56: Cytotoxicity Test Using Human Peripheral Blood Mononuclear Cells (PBMC)
Peripheral blood of a healthy adult was collected in a Venoject II vacuum blood collection tube (Terumo, containing EDTA/2Na), and then diluted two-fold with an equal volume of OTSUKA NORMAL SALINE (Otsuka Pharmaceutical Co., Ltd.). The diluted blood was mixed with Lymphoprep (AXIS-SHIELD) in half the volume of the diluted blood, dispensed into a 15 mL conical tube, and centrifuged at room temperature for 20 min (2,100 rpm). The mononuclear cells accumulated at the interface between Lymphoprep and plasma was transferred to a 50 mL conical tube, diluted with OTSUKA NORMAL SALINE, and the mononuclear cells suspension was centrifuged at room temperature for 10 min (1,150 rpm) and then the supernatant was removed. The mononuclear cells fraction obtained as a precipitate was suspended in an appropriate amount of medium A, and diluted as appropriate with 0.4% trypan blue solution (Sigma-Aldrich Co. LLC.). The number of viable cells was counted with a hemocytometer (ERMA INC.). It was diluted with medium A such that the value obtained was 5×10^5 cells/mL. On the other hand, 37.5 μL of medium A, 2.5 μL of 0.4 mg/mL test compound solution (DMSO solution 10-fold diluted with medium A), and 10 μL of 10 μg/mL lipopolysaccharide (Sigma-Aldrich Co. LLC.) solution (diluted with medium A) were each added in advance to the same well of a Falcon 96-well flat bottom plate (Corning Incorporated), and the above-mentioned cell suspension was dispensed at 50 μL/well (final concentration of test compound 10 μg/mL). 2.5 μL of DMSO diluted 10-fold with medium A was added to the control well instead of the compound solution. After culturing at 37° C. in a 5% CO2 stream for 24 hr, the cell survival rate was measured using WST-1 (DOJINDO LABORATORIES) or WST-8 kit (KISHIDA CHEMICAL Co., Ltd.) and according to each instruction manual attached thereto.

For a further data set, the system named is Daudi cells. The data set is described as follows: Human Burkitt lymphoma cell line Daudi proliferation suppression test. Conditions: 72 h, compound 10 μM, 3 days, WST-8, read-out: cell survival rate (% of control) Daudi. From the text: Example 54: Human Burkitt Lymphoma Cell Line Daudi Proliferation Suppression Test
Daudi cells (National Institutes of Biomedical Innovation, Health and Nutrition (NIBIOHN), JCRB9071) were suspended in medium B, and diluted as appropriate with 0.4% trypan blue solution (Sigma-Aldrich Co. LLC.). The number of viable cells was counted with a hemocytometer (ERMA INC.). A cell suspension obtained by diluting with medium B such that the value obtained was 1.3×10^5 cells/mL was dispensed into a Falcon 96 well flat bottom plate (Corning Incorporated) at 75 μL/well, and culture was started at 37° C. under 5% CO2 stream. The next day, a solution obtained by diluting 4 mM DMSO solution of the test compound 100-fold with medium B was added by 25 μL to each well (final concentration of test compound 10 μM). 25 μL of a solution obtained by diluting DMSO 100-fold with medium B was added to the control well. After culturing at 37° C. in a 5% CO2 stream for 3 days, the cell proliferation activity was measured according to the instruction manual attached to WST-8 Kit (KISHIDA CHEMICAL Co., Ltd.).

Where [2] appears, read: compound 10 μg/mL, WST-1 or WST-8.

Marks after values point to notes of the source that are not given here.

For `O=C1CCC(n2nnc(-c3ccsc3)c2Br)C(=O)N1` (stereo not drawn) [compound 48, 3-[5-bromo-4-(thiophen-3-yl)-1H-1,2,3-triazol-1-yl]piperidine-2,6-dione], the viability at 10 µM with Kasumi-7 cells stood at 95%; in the data set on Daudi cells it was 80%. Besides, the “cell survival rate (% of control) PBMC” value in data set [1] (setting [2]) was 138 % of control.

In the case of `O=C1CCC(n2cc(-c3cscc3OCc3ccccn3)nn2)C(=O)N1` (stereo not drawn) [compound 34, 3-{4-[4-(pyridin-2-ylmethoxy)thiophen-3-yl]-1H-1,2,3-triazol-1-yl}piperidine-2,6-dione], the viability at 10 µM amounted to 45% in the data set on Kasumi-7 cells and 48% in the data set with Daudi cells. Also, the “cell survival rate (% of control) PBMC” value in data set [1] (setting [2]) was 95 % of control.

As to `Cl.O=C1CCC(n2cc(-c3cscc3OCc3ccc(CN4CCCC4)cc3)nn2)C(=O)N1` (stereo not drawn) [compound 41, 3-(4-{4-[4-(pyrrolidin-1-ylmethyl)benzyloxy]thiophen-3-yl}-1H-1,2,3-triazol-1-yl)piperidine-2,6-dione hydrochloride], the viability at 10 µM with Kasumi-7 cells turned out to be 26%; in the data set with Daudi cells, 24%. Besides, in data set [1] (setting [2]), the “cell survival rate (% of control) PBMC” value is 110 % of control.

For `COC(=O)c1scc(-c2cn(C3CCC(=O)NC3=O)nn2)c1OC` (stereo not drawn) [compound 16, methyl 4-[1-(2,6-dioxopiperidin-3-yl)-1H-1,2,3-triazol-4-yl]-3-methoxythiophene-2-carboxylate], the results for the viability at 10 µM in the data set with Kasumi-7 cells and with Daudi cells were 90% and 83%, respectively. The “cell survival rate (% of control) PBMC” value in data set [1] (setting [2]) is recorded as 90 % of control.

Regarding `CCCOc1cscc1-c1cn(C2CCC(=O)NC2=O)nn1` (stereo not drawn) [compound 21, 3-[4-(4-propoxythiophen-3-yl)-1H-1,2,3-triazol-1-yl]piperidine-2,6-dione], the values for the viability at 10 µM in the data set with Kasumi-7 cells and in the data set with Daudi cells were 79% and 86%, respectively. Moreover, in data set [1] (setting [2]), the “cell survival rate (% of control) PBMC” value was 116 % of control.

On to `O=C1CCC(n2cc(-c3cscc3Cl)nn2)C(=O)N1` (stereo not drawn) [compound 14, 3-[4-(4-chlorothiophen-3-yl)-1H-1,2,3-triazol-1-yl]piperidine-2,6-dione], for which the values for the viability at 10 µM in the data set on Kasumi-7 cells and in the data set on Daudi cells were 64% and 49%, respectively. For the same compound, the “cell survival rate (% of control) PBMC” value in data set [1] (setting [2]) is recorded as 113 % of control.

Take `O=C1CCC(n2cc(-c3cscc3OCc3ccc(CN4CCOCC4)cc3)nn2)C(=O)N1` (stereo not drawn) [compound 36, 3-(4-{4-[4-(morpholinomethyl)benzyloxy]thiophen-3-yl}-1H-1,2,3-triazol-1-yl)piperidine-2,6-dione]: the viability at 10 µM in the data set with Kasumi-7 cells was 19%; in the data set on Daudi cells, 6%. Also, the “cell survival rate (% of control) PBMC” value in data set [1] (setting [2]) is 59 % of control.

Turning to `COc1c(-c2cn(C3CCC(=O)NC3=O)nn2)csc1C` (stereo not drawn) [compound 15, 3-[4-(4-methoxy-5-methylthiophen-3-yl)-1H-1,2,3-triazol-1-yl]piperidine-2,6-dione], the viability at 10 µM in the data set on Kasumi-7 cells stood at 60%; in the data set on Daudi cells it was 61%. The “cell survival rate (% of control) PBMC” value in data set [1] (setting [2]) is recorded as 105 % of control.

As for `COc1ccc(COc2cscc2-c2cn(C3CCC(=O)NC3=O)nn2)cc1` (stereo not drawn) [compound 31, 3-{4-[4-(4-methoxybenzyloxy)thiophen-3-yl]-1H-1,2,3-triazol-1-yl}piperidine-2,6-dione], the values for the viability at 10 µM in the data set with Kasumi-7 cells and in the data set with Daudi cells were 43% and 39%, respectively. In addition, the “cell survival rate (% of control) PBMC” value in data set [1] (3 μg/mL due to precipitation of compound in medium) was 106** % of control.

For `Cc1cc(-c2cn(C3CCC(=O)NC3=O)nn2)cs1` (stereo not drawn) [compound 6, 3-[4-(5-methylthiophen-3-yl)-1H-1,2,3-triazol-1-yl]piperidine-2,6-dione], the figures for the viability at 10 µM with Kasumi-7 cells and with Daudi cells were 72% and 79%, respectively. In addition, the “cell survival rate (% of control) PBMC” value in data set [1] (setting [2]) is on record as 96 % of control.

For the compound `O=C1CCC(n2cc(-c3cscc3OCc3ccccc3CN3CCOCC3)nn2)C(=O)N1` (stereo not drawn) [compound 40, 3-(4-{4-[2-(morpholinomethyl)benzyloxy]thiophen-3-yl}-1H-1,2,3-triazol-1-yl)piperidine-2,6-dione], the viability at 10 µM with Kasumi-7 cells stood at 41%; in the data set with Daudi cells it was 46%. Besides, the “cell survival rate (% of control) PBMC” value in data set [1] (setting [2]) was 96 % of control.

For the compound `O=C1CCC(n2cc(-c3cscc3OCC3CC3)nn2)C(=O)N1` (stereo not drawn) [compound 28, 3-{4-[4-(cyclopropylmethoxy)thiophen-3-yl]-1H-1,2,3-triazol-1-yl}piperidine-2,6-dione], the viability at 10 µM in the data set with Kasumi-7 cells came out at 75%; in the data set on Daudi cells it was 78%. Further, the “cell survival rate (% of control) PBMC” value in data set [1] (setting [2]) is on record as 89 % of control.

In the case of `COCc1ccc(COc2cscc2-c2cn(C3CCC(=O)NC3=O)nn2)cc1` (stereo not drawn) [compound 37, 3-(4-{4-[4-(methoxymethyl)benzyloxy]thiophen-3-yl}-1H-1,2,3-triazol-1-yl)piperidine-2,6-dione], the viability at 10 µM in the data set with Kasumi-7 cells was 38%; in the data set on Daudi cells, 20%. For the same compound, the “cell survival rate (% of control) PBMC” value in data set [1] (setting [2]) is listed as 99 % of control.

Consider `O=C1CCC(n2cc(-c3cscc3OCc3ccncc3)nn2)C(=O)N1` (stereo not drawn) [compound 33, 3-{4-[4-(pyridin-4-ylmethoxy)thiophen-3-yl]-1H-1,2,3-triazol-1-yl}piperidine-2,6-dione], for which the viability at 10 µM in the data set with Kasumi-7 cells is 38%; with Daudi cells, 27%. Further, in data set [1] (setting [2]), the “cell survival rate (% of control) PBMC” value was 78 % of control.

For the compound `CCOc1cc(-c2cn(C3CCC(=O)NC3=O)nn2)cs1` (stereo not drawn) [compound 24, 3-[4-(5-ethoxythiophen-3-yl)-1H-1,2,3-triazol-1-yl]piperidine-2,6-dione], the viability at 10 µM in the data set on Kasumi-7 cells was 72%; in the data set with Daudi cells, 69%. Moreover, in data set [1] (setting [2]), the “cell survival rate (% of control) PBMC” value was 91 % of control.

`COc1cscc1-c1cn(C2CCC(=O)NC2=O)nn1` (stereo not drawn) [compound 19, 3-[4-(4-methoxythiophen-3-yl)-1H-1,2,3-triazol-1-yl]piperidine-2,6-dione]: the viability at 10 µM worked out at 24% with Kasumi-7 cells and 4% in the data set on Daudi cells. The “cell survival rate (% of control) PBMC” value in data set [1] (setting [2]) was 99 % of control.

For the compound `O=C1CCC(n2cc(-c3cscc3OCc3ccccc3)nn2)C(=O)N1` (stereo not drawn) [compound 32, 3-{4-[4-(benzyloxy)thiophen-3-yl]-1H-1,2,3-triazol-1-yl}piperidine-2,6-dione], the viability at 10 µM came to 36% with Kasumi-7 cells and 23% in the data set with Daudi cells. Besides, the “cell survival rate (% of control) PBMC” value in data set [1] (setting [2]) is 66 % of control.

`O=C1CCC(n2cc(-c3cscc3OCc3cc4ccccc4s3)nn2)C(=O)N1` (stereo not drawn) [compound 47, 3-{4-[4-(benzo[b]thiophen-2-ylmethoxy)thiophen-3-yl]-1H-1,2,3-triazol-1-yl}piperidine-2,6-dione]: the figures for the viability at 10 µM with Kasumi-7 cells and with Daudi cells were 56% and 87%, respectively. Further, the “cell survival rate (% of control) PBMC” value in data set [1] (setting [2]) was 106 % of control.

With `Cc1cscc1-c1cn(C2CCC(=O)NC2=O)nn1` (stereo not drawn) [compound 7, 3-[4-(4-methylthiophen-3-yl)-1H-1,2,3-triazol-1-yl]piperidine-2,6-dione], the results for the viability at 10 µM in the data set with Kasumi-7 cells and in the data set on Daudi cells were 69% and 75%, respectively. In data set [1] (setting [2]), the “cell survival rate (% of control) PBMC” value is 101 % of control.
